In US20240156971A1, “METHODS AND SORTILIN BINDING CONJUGATE COMPOUNDS FOR TARGETING CANCER STEM CELLS” (TRANSFERT PLUS, SOCIÉTÉ EN COMMANDITE, priority 2021, published 2024):
Square brackets hold non-standard residues; d marks the D form. Ends that are not written are not given here. Alexa Fluor 488 = Alexa Fluor 488 C5-maleimide dye; Nle = CCCC[C@H](N)C(=O)O

Columns and labels:
Sortilin = target: T1, Sortilin (Homo sapiens, UniProt Q99523); assay: Uptake of TH19P01-Alexa Fluor 488 by hBCSCs in the presence of competing Sortilin ligands; format: cell-based; conditions: 200 nM fluorescent peptide, 2 h, 10 μM neurotensin, 50 μM TH19P01 or 1 nM progranulin
T1 construct: host or cells: human triple-negative breast cancer stem cells (hBCSCs)
T1 sequence (Q99523 78-831): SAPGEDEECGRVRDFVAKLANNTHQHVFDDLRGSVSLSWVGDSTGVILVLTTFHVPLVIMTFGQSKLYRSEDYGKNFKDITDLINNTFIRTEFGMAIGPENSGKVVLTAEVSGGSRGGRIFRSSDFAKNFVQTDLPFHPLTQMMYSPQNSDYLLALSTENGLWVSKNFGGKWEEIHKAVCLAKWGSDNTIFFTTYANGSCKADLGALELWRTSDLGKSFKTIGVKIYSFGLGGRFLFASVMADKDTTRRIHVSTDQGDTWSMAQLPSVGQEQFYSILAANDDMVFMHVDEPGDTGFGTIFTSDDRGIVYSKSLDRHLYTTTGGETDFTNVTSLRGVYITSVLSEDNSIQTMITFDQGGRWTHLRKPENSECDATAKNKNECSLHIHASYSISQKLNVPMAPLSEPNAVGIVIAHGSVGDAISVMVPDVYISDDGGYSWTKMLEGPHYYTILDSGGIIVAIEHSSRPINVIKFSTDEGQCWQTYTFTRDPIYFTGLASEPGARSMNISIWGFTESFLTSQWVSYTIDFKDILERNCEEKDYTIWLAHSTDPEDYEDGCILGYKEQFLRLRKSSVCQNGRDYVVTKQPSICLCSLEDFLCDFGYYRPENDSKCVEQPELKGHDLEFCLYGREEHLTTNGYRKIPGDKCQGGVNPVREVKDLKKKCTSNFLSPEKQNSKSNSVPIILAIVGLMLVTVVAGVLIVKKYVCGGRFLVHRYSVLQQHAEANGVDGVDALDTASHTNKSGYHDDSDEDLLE

hBCSCs = assay: Internalization of TH19P01-Alexa Fluor 488 by hBCSCs (flow cytometry); format: cell-based, human; conditions: 200 nM, 2 hours, vs vehicle-treated cells
Protocol: Assessment of Intracellular Fluorescence with TH19P01-Alexa Fluor™ 488. hBCSC were grown in 12-well plates in complete media for 24 hours. […] In another experiment, siScrambled- or siSORT1-transfected cells were washed with HBSS and incubated in HBSS in the presence or absence of 200 nM Alexa Fluor™ 488-labeled TH19P01. For both types of experiments, after 2 hours of incubation at 37° C., cells were washed with HBSS, trypsinized, washed again and fluorescence assessed in the FL1 channel using a C6 Accuri™ flow cytometer (BD Biosciences, San Jose, CA).

ovarian hOCSC xenografts = assay: hOCSC xenografts treated with single agents or combined with carboplatin; format: in vivo, mice; conditions: docetaxel 10 mg/kg; TH1902 23 mg/kg; paclitaxel 10 mg/kg; carboplatin 40 mg/kg; day 18
Protocol: Mice bearing ovarian hOCSC xenografts were treated with vehicle, docetaxel, paclitaxel, TH1902 or carboplatin, and other groups of mice were administered carboplatin in combination with either docetaxel, paclitaxel or TH1902. To minimize the risk of side effects resulting from combining treatments, the dosages used for each drug were reduced to the following: docetaxel 10 mg/kg; TH1902 23 mg/kg (equivalent to the docetaxel dosage); paclitaxel 10 mg/kg; carboplatin 40 mg/kg (unchanged).

“GVRAKAGVRN(Nle)FKSESY (GVRAKAGVRN[Nle]FKSESY) [TH19P01]” was tested, and the “decrease of intracellular fluorescence (internalization of TH19P01-Alexa Fluor 488) by competing agent” value (Sortilin) was “decrease significantly (p<0.01) by about half”.
progranulin [reference compound] was tested, and the “decrease of intracellular fluorescence (internalization of TH19P01-Alexa Fluor 488) by competing agent” value (Sortilin) was “decrease significantly (p<0.01) by about half”.
“TH19P01-Alexa Fluor™ 488 (GVRAKAGVRN[Nle]FKSESYC(Alexa Fluor 488))” was tested, and the “fluorescent signal in cells versus background fluorescence” value (hBCSCs) was “an order of magnitude greater than the background fluorescence”.
With N.N.O=C([O-])C1(C(=O)[O-])CCC1.[Pt+2] [carboplatin] the “inhibition of tumor growth, single agent” value (ovarian hOCSC xenografts) was “practically equivalent to that seen with docetaxel”.
CC(=O)O[C@H]1C(=O)[C@@]2(C)[C@H]([C@H](OC(=O)c3ccccc3)[C@]3(O)C[C@H](OC(=O)[C@H](O)[C@@H](NC(=O)c4ccccc4)c4ccccc4)C(C)=C1C3(C)C)[C@]1(OC(C)=O)CO[C@@H]1C[C@@H]2O [Paclitaxel, paclitaxel] was tested, and the “inhibition of tumor growth, single agent” value (ovarian hOCSC xenografts) was “practically equivalent to that seen with docetaxel”.
